According to patent US20250282895A1, “PHARMACEUTICAL COMPOSITIONS OF CHEMOTHERAPEUTIC AGENTS BASED ON BETA-S[…]-AMINO ACID DERIVATIVES” (priority 2021, published 2025):
Structures can show the parent of a compound that is named as a salt.

Test: Stability of Compound (1c) hydrochloride salt/SBE6.5-β-CD guest-host inclusion complex in 0.9% saline (HPLC/UV)
Assay type: physicochemical
Settings: SBE6.5-β-CD complex in 0.9% saline
Description: A stock solution was prepared by dissolving 68.8 mg (0.206 mmol) of Compound (1c) (free base) in about 20.0 mL of a mixture of acetonitrile/water (1:1, v/v) with vortexing in a clean graduated glass cylinder (25 mL). A solution of 0.407 mL of 0.5072 M aq. HCl (0.206 mmol, 1.0 eq.; Fluka, 318957) was added with gentle vortexing, and the resulting clear solution was further diluted to 25.0 mL with a mixture of acetonitrile/water (1:1, v/v) with gentle vortexing to afford a stock solution of Compound (1c) as a mono-HCl salt of a concentration 2.75 mg/mL. This solution was filtered through a 0.45 μm nylon syringe filter into a clean 50 mL Erlenmeyer flask. Aliquots of 2.0 mL (2× 1.0 mL; 2× 2.75 mg) of the stock solution were rapidly pipetted into clean 12 mL scintillation vials. The aliquots were frozen at −78° C. (dry ice/acetone bath) and lyophilized at about 100 mTorr for about 16 hours to provide test vials each containing 6.1 mg (0.0165 mmol) of Compound (1c) mono-hydrochloride salt (mono-HCl salt) (corresponding to 5.5 mg of Compound (1c)),free base, as a colorless powdery solid.
A cyclodextrin derivative (270 mg; SBE6.5-β-CD, Captisol®, average MW 2,163 g/mol) was added to 6.1 mg (0.0165 mmol) of(S)-3-amino-4-(5-(bis(2-chloroethyl)amino)-2-methylphenyl) butanoic acid mono hydrochloride salt (Compound (1c) mono-HCl salt) in a 12 mL glass vial and dissolved in 3 mL to 4 mL of double-distilled water by vortexing for about 30 sec to provide a clear, colorless solution. The solution was filtered through a 0.45 μm nylon syringe filter into a 12 mL glass vial. The filter was washed twice with double-distilled water (each about 0.5 mL) to provide a clear colorless solution having a pH from 4.4 to 4.7. The filtered solution was frozen at −78° C. (dry ice/acetone bath) and the solvent was lyophilized off at about 100 mTorr for about 16 hours to provide a colorless powdery solid consisting of 6.1 mg (0.0165 mmol) of Compound (1c) mono-HCl salt (corresponding to 5.5 mg of Compound (1c) as free base) and 270 mg of SBE6.5-β-CD, Captisol®). Several vials with the cyclodextrin derivative/Compound (1c) mono-HCl salt guest-host inclusion complex were prepared according to this method.
The cyclodextrin derivative/Compound (1c) mono-HCl salt guest-host inclusion complex was reconstituted by dissolving the guest-host inclusion complex in 0.86 mL of 0.9% saline to provide 1.0 mL of a solution having a nominal concentration of 6.1 mg/mL of Compound (1c) mono-HCl salt guest-host inclusion complex which equates to a nominal concentration of 5.5 mg/mL of the Compound (1c)) guest-host inclusion complex.
A 0.5 mL aliquot of this solution was diluted with 5.0 mL of 0.9% saline, and the pH adjusted with 5 μL of a saturated aqueous NaHCO3 solution to provide 5.5 mL of a clear, colorless solution having a nominal concentration of 0.5 mg/mL Compound (1c) compound and a pH from 5.3 to 5.5.
A 1.0 mL aliquot of the reconstituted solution was diluted with 4.5 mL of 0.9% saline, and the pH was adjusted with about 10 μL of a saturated aqueous NaHCO3 solution to provide 5.5 mL of a clear, colorless solution having a nominal concentration of 1.0 mg/mL of Compound (1c) and a pH of 5-6.
A 1.0 mL aliquot of the reconstituted solution was diluted with 1.75 mL of 0.9% saline, and the pH was adjusted with about 10 μL of a saturated aqueous NaHCO3 solution to provide 2.75 mL of a clear, colorless solution having a nominal concentration of 2.0 mg/mL of Compound (1c) and a pH of 5-6.
The solutions were placed in glass vials and stored at either room temperature (about 25° C.) or refrigerated (about 0° C.), and the amount of Compound (1c) was measured at intervals using analytical high pressure liquid chromatography coupled to a UV detector (HPLC/UV) as described in Example 4.

With Cc1ccc(N(CCCl)CCCl)cc1C[C@H](N)CC(=O)O [Compound (1c)•HCl, (S)-3-amino-4-(5-(bis(2-chloroethyl)amino)-2-methylphenyl) butanoic acid mono hydrochloride salt] the “Compound (1c) (% AUC)” value (nominal 0.125 mg/mL, 0° C., 31 hours) was 93 % AUC, the “Compound (1c) (% AUC)” value (nominal 0.125 mg/mL, 25° C., 2 hours) was 98 % AUC and the “Compound (1c) (% AUC)” value (nominal 0.5 mg/mL, 0° C., 9 hours) was 99 % AUC. The “Compound (1c) (% AUC)” value (nominal 0.5 mg/mL, 25° C., 2 hours) was 97 % AUC, the “Compound (1c) (% AUC)” value (nominal 1.0 mg/mL, 0° C., 31 hours) was 100 % AUC and the “Compound (1c) (% AUC)” value (nominal 1.0 mg/mL, 25° C., 2 hours) was 91 % AUC. The “Compound (1c) (% AUC)” value (nominal 2.0 mg/mL, 0° C., 31 hours) was 91 % AUC and the “Compound (1c) (% AUC)” value (nominal 2.0 mg/mL, 25° C., 2 hours) was 99 % AUC.
